Details: 323.14 K, Liquid, Vibrating tube method

CCCCCCCCCC [decane]
Details	mass density [kg/m3]
6233 kPa	712.5
6244 kPa	712.5
6414 kPa	712.6
6459 kPa	712.7
6531 kPa	712.7
6557 kPa	712.8
6576 kPa	712.8
6597 kPa	712.9
6619 kPa	712.7
6725 kPa	712.9
6747 kPa	713
6764 kPa	712.9
6781 kPa	713.1
6809 kPa	713
6826 kPa	713
6855 kPa	713
6870 kPa	713
6893 kPa	713.1
7285 kPa	713.4
7382 kPa	713.6
7397 kPa	713.5
7411 kPa	713.6
7428 kPa	713.5
7445 kPa	713.5
7465 kPa	713.7
7482 kPa	713.5
7509 kPa	713.6
7525 kPa	713.5
7542 kPa	713.8
7557 kPa	713.7
7580 kPa	713.6
7601 kPa	713.7
7618 kPa	713.7
7634 kPa	713.7
7652 kPa	713.7
7670 kPa	713.8
7683 kPa	713.8
7696 kPa	713.7
7715 kPa	713.7
7737 kPa	713.8
7758 kPa	713.9
7774 kPa	713.9
7790 kPa	713.8
7809 kPa	713.9
7828 kPa	713.9
7850 kPa	714
7869 kPa	714
7894 kPa	713.9
7916 kPa	713.9
7935 kPa	714.1
7956 kPa	714
7977 kPa	714.1
7997 kPa	714.1
8016 kPa	714
8033 kPa	714.1
8054 kPa	714.1
8074 kPa	714.1
8097 kPa	714.1
8121 kPa	714.2
8138 kPa	714.2
8158 kPa	714.1
8179 kPa	714.2
8197 kPa	714.3
8218 kPa	714.3
8245 kPa	714.3
8263 kPa	714.3
8284 kPa	714.3
8306 kPa	714.4
8333 kPa	714.4
8348 kPa	714.4
8376 kPa	714.5
8451 kPa	714.3
8476 kPa	714.5
8495 kPa	714.5
8518 kPa	714.6
8543 kPa	714.5
8582 kPa	714.5
8625 kPa	714.6
8654 kPa	714.7
8677 kPa	714.6
8707 kPa	714.7
8738 kPa	714.7
8762 kPa	714.6
8789 kPa	714.7
8813 kPa	714.7
8834 kPa	714.8
8855 kPa	714.8
8876 kPa	714.7
8907 kPa	714.8
8932 kPa	714.8
8957 kPa	714.9
8990 kPa	714.8
9031 kPa	715
9048 kPa	715
9072 kPa	715.1
9095 kPa	715
9118 kPa	715.1
9139 kPa	715
9160 kPa	715.1
9185 kPa	715.1
9212 kPa	715
9231 kPa	715
9255 kPa	715.2
9277 kPa	715.1
9304 kPa	715.3
9344 kPa	715.2
9366 kPa	715.1
9390 kPa	715.1
9415 kPa	715.2
9434 kPa	715.3
9476 kPa	715.4
9504 kPa	715.4
9524 kPa	715.4
9550 kPa	715.4
9576 kPa	715.4
9607 kPa	715.3
9630 kPa	715.4
9653 kPa	715.5
9676 kPa	715.5
9703 kPa	715.4
9721 kPa	715.6
9741 kPa	715.5
9766 kPa	715.5
9789 kPa	715.5
9813 kPa	715.5
9834 kPa	715.6
9852 kPa	715.7
9870 kPa	715.7
9901 kPa	715.7
9920 kPa	715.7
9941 kPa	715.6
9965 kPa	715.8
9990 kPa	715.7
10015 kPa	715.8
10040 kPa	715.9
10068 kPa	715.9
10093 kPa	715.9
10113 kPa	715.9
10141 kPa	715.8
10166 kPa	715.9
10189 kPa	715.8
10208 kPa	715.9
10238 kPa	716
10264 kPa	716
10291 kPa	716
10367 kPa	716.1
10397 kPa	716.1
10421 kPa	716.1
10442 kPa	716.2
10472 kPa	716.2
10493 kPa	716.2
10520 kPa	716.1
10579 kPa	716.2
10608 kPa	716.2
10639 kPa	716.3
10664 kPa	716.2
10686 kPa	716.4
10714 kPa	716.4
10739 kPa	716.4
10771 kPa	716.4
10796 kPa	716.4
10826 kPa	716.4
10852 kPa	716.5
10882 kPa	716.5
10909 kPa	716.5
10931 kPa	716.6
10956 kPa	716.5
10988 kPa	716.6
11010 kPa	716.6
11042 kPa	716.7
11071 kPa	716.7
11103 kPa	716.7
11126 kPa	716.8
11156 kPa	716.7
11185 kPa	716.7
11209 kPa	716.9
11236 kPa	716.8
11259 kPa	716.7
11422 kPa	717
11448 kPa	717
11495 kPa	717
11520 kPa	717
11538 kPa	717.1
11560 kPa	717
11582 kPa	717
11601 kPa	717.2
11626 kPa	717
11645 kPa	717.1
11670 kPa	717.2
11695 kPa	717
11718 kPa	717.2
11739 kPa	717.1
11755 kPa	717.1
11781 kPa	717.2
11813 kPa	717.3
11845 kPa	717.4
11865 kPa	717.2
11891 kPa	717.4
11927 kPa	717.4
11954 kPa	717.4
11974 kPa	717.4
12001 kPa	717.4
12022 kPa	717.4
12046 kPa	717.5
12071 kPa	717.5
12283 kPa	717.7
12299 kPa	717.6
12320 kPa	717.7
12335 kPa	717.6
12350 kPa	717.7
12372 kPa	717.8
12543 kPa	717.9
12558 kPa	717.9
12576 kPa	717.9
12592 kPa	717.9
12612 kPa	718
12628 kPa	717.9
12644 kPa	717.9
12667 kPa	717.9
12689 kPa	718
12714 kPa	718.1
12739 kPa	718.1
12755 kPa	718
12770 kPa	718
12790 kPa	718.3
12807 kPa	718.1
12823 kPa	718.1
12837 kPa	718
12936 kPa	718.2
12949 kPa	718.2
13023 kPa	718.3
13043 kPa	718.3
13073 kPa	718.3
13090 kPa	718.3
13112 kPa	718.3
13128 kPa	718.4
13145 kPa	718.3
13160 kPa	718.4
13180 kPa	718.4
13197 kPa	718.5
13215 kPa	718.4
13228 kPa	718.4
13244 kPa	718.4
13258 kPa	718.4
13272 kPa	718.4
13285 kPa	718.4
13303 kPa	718.6
13314 kPa	718.5
13328 kPa	718.5
13346 kPa	718.4
13361 kPa	718.4
13379 kPa	718.4
13395 kPa	718.6
13413 kPa	718.5
13429 kPa	718.6
13443 kPa	718.6
13457 kPa	718.6
13476 kPa	718.7
13496 kPa	718.6
13510 kPa	718.6
13531 kPa	718.5
13547 kPa	718.7
13565 kPa	718.7
13587 kPa	718.7
13601 kPa	718.6
13622 kPa	718.7
13639 kPa	718.7
13660 kPa	718.8
13677 kPa	718.8
13699 kPa	718.8
13715 kPa	718.9
13732 kPa	718.8
13753 kPa	718.9
13770 kPa	718.9
